Experimental data: ChEMBL document CHEMBL3988442, “University of Dundee, Small-Polar-MMV Screening Library” (2021)
“And” between values parts separate entries of the source, which are not always exact repeats. Equal values may be shown once.

Legend:
Histidine--tRNA ligase [1] = biological target: T1, Histidine--tRNA ligase (Trypanosoma cruzi (strain CL Brener), UniProt Q4DA54); assay: Trypanosoma cruzi histidyl tRNA synthetase (Tc-HisRS); format: functional
T1 sequence (Q4DA54 whole entry): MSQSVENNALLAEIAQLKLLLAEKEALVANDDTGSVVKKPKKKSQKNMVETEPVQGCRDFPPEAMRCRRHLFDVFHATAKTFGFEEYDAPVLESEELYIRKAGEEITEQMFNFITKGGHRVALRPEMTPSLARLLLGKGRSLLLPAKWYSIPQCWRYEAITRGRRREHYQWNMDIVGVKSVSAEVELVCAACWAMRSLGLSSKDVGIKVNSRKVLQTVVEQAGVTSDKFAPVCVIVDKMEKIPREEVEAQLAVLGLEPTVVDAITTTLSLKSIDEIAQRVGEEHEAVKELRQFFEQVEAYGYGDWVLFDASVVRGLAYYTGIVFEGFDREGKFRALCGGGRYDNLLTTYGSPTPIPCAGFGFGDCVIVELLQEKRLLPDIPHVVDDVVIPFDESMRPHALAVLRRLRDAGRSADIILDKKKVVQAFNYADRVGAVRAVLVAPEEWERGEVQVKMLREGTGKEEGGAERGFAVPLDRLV

Histidine--tRNA ligase [2] = biological target: T2, Histidine--tRNA ligase (Leishmania infantum, UniProt A4I591); assay: Leishmania infantum Histidine tRNA synthetase (LdHisRS); format: functional
T2 sequence (A4I591 whole entry): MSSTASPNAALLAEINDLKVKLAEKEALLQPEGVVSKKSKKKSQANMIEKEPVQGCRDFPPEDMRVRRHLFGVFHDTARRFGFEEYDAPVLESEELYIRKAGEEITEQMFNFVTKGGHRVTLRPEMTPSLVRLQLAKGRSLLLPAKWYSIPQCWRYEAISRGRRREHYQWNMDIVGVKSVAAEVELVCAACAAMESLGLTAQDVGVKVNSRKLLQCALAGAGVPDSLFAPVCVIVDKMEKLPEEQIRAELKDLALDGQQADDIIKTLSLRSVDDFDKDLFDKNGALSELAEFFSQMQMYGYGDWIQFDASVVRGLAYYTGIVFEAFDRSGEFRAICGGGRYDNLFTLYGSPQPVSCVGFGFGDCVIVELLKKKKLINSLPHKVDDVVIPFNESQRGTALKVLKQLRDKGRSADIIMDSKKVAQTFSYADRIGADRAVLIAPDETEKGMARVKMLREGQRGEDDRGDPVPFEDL

[3] = microbe, parasite or virus in culture; conditions: Mycobacterium tuberculosis, 96 h, read-out: pIC50 (converted)
[4] = microbe, parasite or virus in culture; conditions: Mycobacterium tuberculosis, 72 h, read-out: pIC50 (converted)

SMILES | IC50 (Histidine--tRNA ligase [1]) | also measured
Cc1cnc(N2CCCC3(COCCN(c4ccc(C)nn4)C3)C2)nc1 (stereo not drawn) | > 100 µM | –
COCCN1CCC2(CCN(c3ncccn3)CC2)C1=O | > 100 µM | –
CN(C)[C@H]1CCCCN(Cc2cnc(NCc3ccccc3)nc2)C1 | > 100 µM | –
Fc1cc(F)cc(CN2CCC(c3cc4ncccc4cn3)CC2)c1 | > 100 µM | –
Cc1ccc(N2CCOCC3(CCCN(c4ncc(F)cn4)C3)C2)nn1 (stereo not drawn) | > 100 µM | –
Cc1nc(C)n(CC2CCCN2Cc2nc3ccccc3nc2C)n1 (stereo not drawn) | > 100 µM | –
O=C(O)c1ccc2ccc(N3CCN(CC4CC4)CC3)n2c1 | 38.6 µM and 57.7 µM | –
Cc1ccc(N2CCCC3(COCCN(c4nccs4)C3)C2)nn1 (stereo not drawn) | > 100 µM | –
OCCNc1cc(-c2nccnc2N2CCCC2)c2cc[nH]c2n1 | 32.6 µM and 31 µM | IC50 (Histidine--tRNA ligase [2]): 16.2 µM and 14.9 µM
NC1CCN(C2CCN(c3ccc(-c4ccco4)cc3)CC2)CC1 | 34.3 µM and 40.4 µM | IC50 (Histidine--tRNA ligase [2]): 23 µM and 22.9 µM
Cn1cc(NC(=O)CCc2ccsc2)ccc1=O | 13.3 µM and 13.9 µM | IC50 (Histidine--tRNA ligase [2]): 12.7 µM and 13.3 µM
O=C(O)c1cncc(Cc2ccccc2F)c1 | > 100 µM | –
c1cnnc(N2CCCC(NCc3nc(-c4cccs4)no3)C2)c1 (stereo not drawn) | > 100 µM | –
c1cnnc(N2CCCC(NCc3nc(C4CC4)no3)C2)c1 (stereo not drawn) | 52.8 µM and 48.2 µM | –
Cc1ccc(N2Cc3c(CN(C)C)nn(C)c3C2)nn1 | > 100 µM | –
Cc1nc(C)n(CC2CCCN2Cc2nc(C)c3ccccc3n2)n1 (stereo not drawn) | 30.1 µM and 20 µM | IC50 (Histidine--tRNA ligase [2]): 31 µM and 34.3 µM
CCN(CC)CCNC(=O)CCc1c(C)nn(-c2ccccc2Br)c1C | > 100 µM | –
Nc1nccc(C2CN(Cc3ccc(-c4ccccc4C(=O)O)o3)C2)n1 | 32.2 µM and 50.5 µM | IC50 (Histidine--tRNA ligase [2]): 25.3 µM and 25.4 µM
CCCn1cc(NC(=O)c2ccc(N(C)CC)cc2)ccc1=O | > 100 µM | –
Cc1nc(CN(C)CC2CCCN2c2cccnn2)nc2ccccc12 (stereo not drawn) | 30.3 µM and 27.2 µM | IC50 (Histidine--tRNA ligase [2]): 11.8 µM and 14.8 µM; IC50 [3]: > 50.1 µM; IC50 [4]: 10.8 µM
CN(Cc1nc2ccccc2o1)CC1CCCN1c1cccnn1 (stereo not drawn) | > 100 µM | –

SMILES | IC50 (Histidine--tRNA ligase [1]) | also measured
Cc1nc2ccccc2nc1CN(C)CC1CCCN1c1cccnn1 (stereo not drawn) | 90.5 µM and 50.8 µM | –
O=C(O)c1cncc(Cc2cccc(F)c2)c1 | > 100 µM | –
Nc1cc(-c2nccnc2N2CCCC2)c2cc[nH]c2n1 | 64.4 µM and 75.3 µM | –
c1ccc(-c2noc(CNC3CCCN(c4cccnn4)C3)n2)nc1 (stereo not drawn) | > 100 µM | IC50 (Histidine--tRNA ligase [2]): 34.2 µM and 44.7 µM
O=C1N(CC2CCCC2)CCC12CCN(c1ncc(F)cn1)CC2 | > 100 µM | –
CCCn1cc(NC(=O)c2cccnc2O)ccc1=O | > 100 µM | –
Cc1nc(C)n(CC2CCCN2Cc2nc3ccccc3c(=O)[nH]2)n1 (stereo not drawn) | > 100 µM | –
Cn1nc(Cn2ccnc2)c2c1CN(c1ncccn1)C2 | > 100 µM | –
Cc1nc(C)n(CC2CCCN2Cc2nc3ccccc3n2C)n1 (stereo not drawn) | > 100 µM | –
COc1cccn(CC(=O)N2CCCC3(CCCCC3)C2)c1=O | 4.24 µM and 4.44 µM | IC50 (Histidine--tRNA ligase [2]): 8.99 µM and 8.08 µM
CN(Cc1nc2ccccc2n1C)CC1CCCN1c1cccnn1 (stereo not drawn) | 52.7 µM and 52.1 µM | –
Cc1cnc(N2CCC3(CCN(CC4CCCC4)C3=O)CC2)nc1 | > 100 µM | –
Cc1nc(C)n(CC2CCCN2Cc2nc3ccccc3s2)n1 (stereo not drawn) | > 100 µM | –
c1ccc(CNc2ncc(CN3CC[C@H]4CC[C@@H](C3)N4)cn2)cc1 | > 100 µM | –
COc1cccn(CC(=O)N2CCCC3(CCCO3)CC2)c1=O (stereo not drawn) | > 100 µM | IC50 (Histidine--tRNA ligase [2]): > 100 µM
c1cncc(-c2noc(CNC3CCCN(c4cccnn4)C3)n2)c1 (stereo not drawn) | > 100 µM | –
c1ccc(-c2nc(CNC3CCCN(c4cccnn4)C3)no2)cc1 (stereo not drawn) | > 100 µM | –
COCCc1noc(CNC2CCCN(c3cccnn3)C2)n1 (stereo not drawn) | > 100 µM | –
Cc1ccc(N2CCCC3(COCCN(c4ccccn4)C3)C2)nn1 (stereo not drawn) | > 100 µM | –
Cc1ccc(N2CCC3(CC2)COCCN(c2nccs2)C3)nn1 | 96.2 µM and 98.9 µM | IC50 (Histidine--tRNA ligase [2]): 33.4 µM and 28.7 µM
